Test results: the NIST ThermoML archive (doi:10.1021/je400659p)

Columns and labels:
[1] = refractive index (Na D-line) (dimensionless); xn = mol fraction of the nth substance listed; conditions: 101 kPa, Liquid, Standard Abbe refractometry
[2] = xn = mol fraction of the nth substance listed; conditions: 101 kPa, Liquid, Vibrating tube method

CCn1cc[n+](C)c1.F[B-](F)(F)F [1-ethyl-3-methylimidazolium tetrafluoroborate] + C1COCCO1
Conditions	mass density, [2] [kg/m3]	refractive index, [1]
293.15 K, x1 = 0.3292	1171.62	–
293.15 K, x1 = 0.4547	1203.47	–
293.15 K, x1 = 0.4923	1211.84	–
293.15 K, x1 = 0.6409	1240.74	–
293.15 K, x1 = 0.6838	1246.89	–
293.15 K, x1 = 0.7851	1263.5	–
293.15 K, x1 = 0.8336	1270.18	–
293.15 K, x1 = 1	1290.63	–
298.15 K, x1 = 0.3292	1167.26	1.4214
298.15 K, x1 = 0.4547	1199.31	1.4197
298.15 K, x1 = 0.4923	1207.73	1.4191
298.15 K, x1 = 0.6409	1236.77	1.4165
298.15 K, x1 = 0.6838	1242.94	1.4157
298.15 K, x1 = 0.7851	1259.61	1.414
298.15 K, x1 = 0.8336	1266.32	1.4132
298.15 K, x1 = 1	1286.82	1.4111
303.15 K, x1 = 0.3292	1163	1.4195
303.15 K, x1 = 0.4547	1195.16	1.4181
303.15 K, x1 = 0.4923	1203.63	1.4176
303.15 K, x1 = 0.6409	1232.79	1.415
303.15 K, x1 = 0.6838	1238.89	1.4143
303.15 K, x1 = 0.7851	1255.72	1.4125
303.15 K, x1 = 0.8336	1262.45	1.4118
303.15 K, x1 = 1	1283.02	1.41
313.15 K, x1 = 0.3292	1154.24	1.4163
313.15 K, x1 = 0.4547	1186.92	1.4154
313.15 K, x1 = 0.4923	1195.48	1.4149
313.15 K, x1 = 0.6409	1224.92	1.4126
313.15 K, x1 = 0.6838	1231.17	1.4118
313.15 K, x1 = 0.7851	1248.01	1.41
313.15 K, x1 = 0.8336	1254.79	1.4092
313.15 K, x1 = 1	1275.45	1.4073
323.15 K, x1 = 0.3292	1145.14	1.4129
323.15 K, x1 = 0.4547	1178.43	1.4123
323.15 K, x1 = 0.4923	1187.38	1.4119
323.15 K, x1 = 0.6409	1217.1	1.4097
323.15 K, x1 = 0.6838	1223.4	1.409
323.15 K, x1 = 0.7851	1240.36	1.4074
323.15 K, x1 = 0.8336	1247.18	1.4067
323.15 K, x1 = 1	1267.97	1.4051
333.15 K, x1 = 0.3292	1136.98	–
333.15 K, x1 = 0.4547	1170.56	–
333.15 K, x1 = 0.4923	1179.33	–
333.15 K, x1 = 0.6409	1209.33	–
333.15 K, x1 = 0.6838	1215.68	–
333.15 K, x1 = 0.7851	1232.77	–
333.15 K, x1 = 0.8336	1239.64	–
333.15 K, x1 = 1	1260.55	–
343.15 K, x1 = 0.3292	1128.37	–
343.15 K, x1 = 0.4547	1162.44	–
343.15 K, x1 = 0.4923	1171.31	–
343.15 K, x1 = 0.6409	1201.62	–
343.15 K, x1 = 0.6838	1208.02	–
343.15 K, x1 = 0.7851	1225.24	–
343.15 K, x1 = 0.8336	1232.15	–
343.15 K, x1 = 1	1253.18	–
353.15 K, x1 = 0.3292	1120.41	–
353.15 K, x1 = 0.4547	1154.35	–
353.15 K, x1 = 0.4923	1163.32	–
353.15 K, x1 = 0.6409	1193.95	–
353.15 K, x1 = 0.6838	1200.41	–
353.15 K, x1 = 0.7851	1217.75	–
353.15 K, x1 = 0.8336	1225.41	–
353.15 K, x1 = 1	1245.87	–

C1COCCO1 [1,4-dioxane] + CCCCn1cc[n+](C)c1.F[B-](F)(F)F
Conditions	mass density, [2] [kg/m3]	refractive index, [1]
293.15 K, x2 = 0	1033.57	–
293.15 K, x2 = 0.2559	1118.75	–
293.15 K, x2 = 0.3956	1146.31	–
293.15 K, x2 = 0.4988	1161.37	–
293.15 K, x2 = 0.6	1173.1	–
293.15 K, x2 = 0.7021	1183.04	–
293.15 K, x2 = 0.8993	1198.09	–
298.15 K, x2 = 0	1027.92	1.4205
298.15 K, x2 = 0.2559	1114.31	1.4253
298.15 K, x2 = 0.3956	1142.23	1.4258
298.15 K, x2 = 0.4988	1157.44	1.4256
298.15 K, x2 = 0.6	1169.26	1.4249
298.15 K, x2 = 0.7021	1179.3	1.4241
298.15 K, x2 = 0.8993	1194.53	1.4222
303.15 K, x2 = 0	1022.27	1.4171
303.15 K, x2 = 0.2559	1109.87	1.4236
303.15 K, x2 = 0.3956	1138.14	1.4244
303.15 K, x2 = 0.4988	1153.51	1.4242
303.15 K, x2 = 0.6	1165.45	1.4235
303.15 K, x2 = 0.7021	1175.57	1.4225
303.15 K, x2 = 0.8993	1190.95	1.4207
313.15 K, x2 = 0	1010.91	1.4112
313.15 K, x2 = 0.2559	1101.06	1.4196
313.15 K, x2 = 0.3956	1130.01	1.421
313.15 K, x2 = 0.4988	1145.69	1.4211
313.15 K, x2 = 0.6	1157.84	1.4206
313.15 K, x2 = 0.7021	1168.15	1.4199
313.15 K, x2 = 0.8993	1183.8	1.4183
323.15 K, x2 = 0	999.49	1.4063
323.15 K, x2 = 0.2559	1092.28	1.4161
323.15 K, x2 = 0.3956	1121.91	1.4179
323.15 K, x2 = 0.4988	1137.92	1.4181
323.15 K, x2 = 0.6	1150.29	1.4177
323.15 K, x2 = 0.7021	1160.77	1.4169
323.15 K, x2 = 0.8993	1176.68	1.4155
333.15 K, x2 = 0	987.97	–
333.15 K, x2 = 0.2559	1083.47	–
333.15 K, x2 = 0.3956	1113.85	–
333.15 K, x2 = 0.4988	1130.18	–
333.15 K, x2 = 0.6	1142.79	–
333.15 K, x2 = 0.7021	1153.44	–
333.15 K, x2 = 0.8993	1169.6	–
343.15 K, x2 = 0	976.37	–
343.15 K, x2 = 0.2559	1074.65	–
343.15 K, x2 = 0.3956	1105.8	–
343.15 K, x2 = 0.4988	1122.47	–
343.15 K, x2 = 0.6	1135.31	–
343.15 K, x2 = 0.7021	1146.14	–
343.15 K, x2 = 0.8993	1162.53	–
353.15 K, x2 = 0	964.63	–
353.15 K, x2 = 0.2559	1065.8	–
353.15 K, x2 = 0.3956	1097.77	–
353.15 K, x2 = 0.4988	1114.8	–
353.15 K, x2 = 0.6	1127.87	–
353.15 K, x2 = 0.7021	1138.89	–
353.15 K, x2 = 0.8993	1155.57	–
